Results: patent US7530461B2, “Esters of 5-aminolevulinic acid as photosensitizing agents in photochemotherapy” (PhotoCure ASA, priority 1995, dated 2009)
“Also recorded” adds a separate entry of the source. Where a name gives a salt, the structure may show the parent alone.

Columns and labels:
[1] = system: normal skin of nu/nu nude mice; assay: Protoporphyrin IX production in the skin of mice by CCD microscopy of biopsies; type: in vivo; settings: 20% w/w cream; for time after topical application at which conversion into protoporphyrin IX (PpIX) is seen: normal skin of nu/nu nude mice; for time of maximum PpIX fluorescence after application: topical, 6 hours was the latest time point studied
Experimental: A commercial oil-in-water cream containing (20% w/w) one of the chemicals (free ALA, ALA methylester, ALA ethylester and ALA propylester) (see Example 1) was topically applied to the normal skin of nu/nu nude mice for 0.5, 1, 3 and 6 hours, then biopsied and evaluated by means of microscopic fluorescence photometry incorporating a light-sensitive thermol-electrically cooled charge coupled device (CCD) camera. […] The fluorescence intensity of PpIX in the skin increased with the time of the application and the maximum amounts of the fluorescence were seen about 6 hours (the latest time point studied) after the application in all cases.

normal skin of nude mice [2] = assay: Fluorescence microscopy of mouse skin biopsies after topical application; type: in vivo; settings: 1 h after topical application
Experimental: (§1) Treatment procedure. One of the creams was painted on the normal skin at right flank region of each mouse, and covered by a semi-permeable dressing (3M, St Paul, Minn., USA) for various time intervals (from 0.25 to 24 h) before fluorescence measurements in situ or being biopsied for microscopic fluorescence imaging. About 0.2 g cream was applied to an approximate 2.25 cm^2 area of the skin. In the case of i.p. injection the mice were given ALA or its methylester at a dose of 150 mg/kg. At least three mice were used for each condition.
Fluorescence microscopy. After the creams were topically applied to the skin of mice for various times (as indicated above), the skin was biopsied and the frozen tissue sections were cut with a cryostat to a thickness of 8 μm. The fluorescence microscopy was carried out using an Axioplan microscope (Zeiss, Germany) with a 100 W mercury lamp. The fluorescence images were recorded by a light-sensitive thermoelectrically cooled charge coupled device (CCD) camera (resolution: 385×578 pixels with a dynamic range of 16 bits per pixel)(Astromed CCD 3200, Cambridge, UK) and hard copies on a video printer (Sony multiscan video printer UP-930). The filter combination used for detection of porphyrin fluorescence consisted of 390-440 nm excitation filter, a 460 nm beam splitter and a >600 nm emission filter.
II. […] The fluorescence intensity of the porphyrins increased with the time after the application.

normal skin of nude mice [3] = assay: In situ measurement of PpIX fluorescence in the skin of mice by an optical-fiber-based system; type: in vivo
[4] = system: BCC lesions and adjacent normal skin; assay: Control one week after treatment (cream and light irradiation) of BCC patient; type: in vivo, human
[5] = system: WiDr human colonic carcinoma; assay: PDT effect on tumor growth in WiDr human colonic carcinoma-transplanted nude mice; type: in vivo; settings: with DF and DMSO
Experimental: Nude mice were transplanted with WiDr human colonic carcinoma cells by subcutaneous injection into the right flank region. […] The responses of the treated tumors were evaluated as tumor regression/regrowth time. When the tumors reached a volume 5 times that of the volume on the day of light irradiation, the mice were killed. (Bars: standard error of mean (SEM) based on 3-5 individual animals in each group).

[6] = system: BCC lesions and surrounding normal skin; assay: PpIX production in human BCC and surrounding normal skin by CCD microscopy of biopsies; type: in vivo; settings: for distribution of PpIX fluorescence from top to bottom of BCC lesions: patient
Experimental: […] After removal of dressings and cream in vivo fluorescence was measured at the surface of tumor tissue and adjacent normal skin by means of a spectrofluorometer. Punch biopsies of the same areas were removed and samples were immediately immersed in liquid nitrogen. The tissue sections were cut with a cryostat microtome to a thickness of 8 μm. The localization pattern of the porphyrin fluorescence in the tissue sections was directly observed by means of fluorescence microscopy. The same frozen sections were subsequently stained with routine H&E staining for histological identification.
The same sections were subsequently stained with routine H&E staining for histological identification. Fluorescence microscopy was carried out with an Axioplan microscope (Zeiss, Germany). Fluorescence images and quantitative measurements were performed by a light-sensitive thermol-electrically cooled charge coupled device (CCD) camera (Astromed CCD 3200, Cambridge, UK) and an image processing unit (Astromed/Visilog, PC 486DX2 66 MHz VL). The main purpose for such quantitative measurements is to determine the exact penetration of ALA-induced porphyrins from tissue surface to the bottom layers of cancer lesions. The results are shown in FIGS. 8 and 9 in which the fluorescence intensity is expressed as a function of depth of cancer lesion.
The tests were performed as described in Example 11.
Each of the following figures show both (A) fluorescence images of either the bottom layer of BCC lesions or of the surrounding normal skin. Curves indicating the fluorescence intensity as a function of depth of the BCC lesions or of the normal skin are also shown (B).

[7] = system: basal cell carcinoma (BCC) lesions and surrounding normal skin; assay: PpIX fluorescence in human BCC and surrounding normal skin by optical-fiber based system; type: in vivo
Experimental: The PpIX fluorescence in the BCC lesions and surrounding normal skin of human patients was measured in situ by optical-fiber based system after topical application of 20% free ALA and its derivatives for various time intervals.
The PpIX fluorescence ratios between BCC lesions and surrounding normal skin after topical application of ALA or its esters (20% for 4 hours), was examined using methods described in previous examples.

[8] = system: BCC lesions and adjacent normal skin; assay: In vivo surface fluorescence of tumor tissue and adjacent normal skin by spectrofluorometer; parameters: species or system human; settings: after 24 hours, surface measurement
Experimental: In a person presenting multiple ulcero-nodular BCCs lesions were exposed to commercial oil-in-water creams containing either ALA alone (20 k w/w) or ALA methyl ester (20% w/w) (as described in Example 7) covered by a semi-permeable dressing for 24 hours. After removal of dressings and cream in vivo fluorescence was measured at the surface of tumor tissue and adjacent normal skin by means of a spectrofluorometer. Punch biopsies of the same areas were removed and samples were immediately immersed in liquid nitrogen. The tissue sections were cut with a cryostat microtome to a thickness of 8 μm. The localization pattern of the porphyrin fluorescence in the tissue sections was directly observed by means of fluorescence microscopy. The same frozen sections were subsequently stained with routine H&E staining for histological identification.

[9] = system: basal cell carcinomas (BCCs); assay: Topical ALA-based PDT of patients with basal cell carcinomas; type: in vivo, human
normal skin of nude mice [10] = assay: In situ measurement of PpIX fluorescence in the skin of mice by an optical-fiber-based system; type: in vivo; settings: for PpIX fluorescence in normal mouse skin after cream containing the agent alone: without ALA methylester
Experimental: Chemicals. 5-aminolevulinic acid (ALA) methyl-, ethyl- and propyl-esters (H2N—CH2COOCH2—CH2COO—R; R can be CH3, CH2—CH2—CH3) were prepared by Norsk Hydro Research Center (Porsgrunn, Norway) as described in Examples 1 to 3. Free ALA hydrochloride and desferrioxamine mesylate (DF) were purchased from Sigma Chemical Company (St. Louis, Mo., USA). Dimethyl sulphoxide (DMSO) was obtained from Janssen Chimica (Geel, Belgium). Commercial oil-water creams (Unguentum Merck, Darmstadt, Germany) containing 20% one of the ALA ester derivatives (w/w), 20% free ALA, 20% ALA methylester plus 5% DF, 20% ALA methylester plus 20% DMSO, or 20% ALA methylester plus 5% DF and 20% DMSO were freshly prepared prior to use. All creams were made by the Pharmacy at the Norwegian Radium Hospital. For intraperitoneal injection, ALA and its methylester were freshly dissolved in saline. All other chemicals used were of the highest purity commercially available.
Animals. Female Balb/c nu/nu athymic nude mice were obtained from the Animal Laboratory at the Norwegian Radium Hospital and kept under specific-pathogen-free conditions. At the start of the experiments the mice were 6-7 weeks old weighing 18-24 g. Three mice were housed per cage with autoclaved covers in a dark room during the experiments.
as §1
Fluorescence spectroscopic measurements in situ. A perkin Elmer LS-50 fluorescence spectrometer equipped with a red-sensitive photomultiplier (Hamamatsu R 928) was used. This instrument has a pulsed Xenon arc light source and phase sensitive detection, such that fluorescence can be readily measured. Part of the excitation beam (set at 408 nm for fluorescence measurements) was reflected into a 600 μm core multimodus optical quartz fiber (No. 3501 393, Dornier Medizintechnik, GmbH, Germering, Germany) by means of a mirror for application onto the subject through a hand held probe. Emission in the region of 550-750 nm was measured via emission fibres collecting information through the probe.
I. The effect of DF and/or DMSO on the build up of fluorescence in the normal skin of mice in situ was ascertained various times after topical administration of ALA-methylester. Methods were performed as described in Example 9.

[11] = intraperitoneal injection, 150 mg/kg
[12] = topical application for 4.5 hours
[13] = topical application for 24 hours

Row | Structure (SMILES) | time after topical application at which conversion into protoporphyrin IX (PpIX) is seen [1] | time of maximum PpIX fluorescence after application [1] | localization of porphyrin fluorescence in mouse skin (normal skin of nude mice [2]) | erythema in adjacent normal skin exposed to cream and light irradiation [4] | tumor response in treatment fields [4] | distribution of PpIX fluorescence from top to bottom of BCC lesions ([6]; 20% w/w cream, 24 hours) | distribution of porphyrin fluorescence in the bottom layer of BCC and surrounding normal skin [6, 13] | fluorescence intensity ratio between BCC and normal skin [6, 13] | porphyrin fluorescence/production in BCC, ALA methyl ester versus free ALA alone [6, 13] | PpIX fluorescence in normal mouse skin after cream containing the agent alone (normal skin of nude mice [10]; topical) | other results
1 | CCCOC(=O)CCC(=O)CN.Cl [ALA propylester, n-propyl 5-aminolevulinate hydrochloride] | 0.5 h | about 6 hours | fluorescence in the epidermis (Ep), epithelial hair follicles and sebaceous gland (arrows), but not in the dermis (De) |  |  |  |  |  |  |  | 
2 | COC(=O)CCC(=O)CN.Cl [ALA methylester, methyl 5-aminolevulinate hydrochloride] | 0.5 h | about 6 hours | fluorescence in the epidermis (Ep), epithelial hair follicles and sebaceous gland (arrows), but not in the dermis (De) | only moderate erythema | central necrotic area corresponding to the tumor | homogeneous distribution of PpIX fluorescence | uniform distribution | about 2 | almost twice as high |  | decrease of skin fluorescence compared with free ALA (normal skin of nude mice [3]; [11]): the fluorescence decreased faster in the case of the ester than in the case of the free ALA; time at which PpIX fluorescence disappeared post injection (normal skin of nude mice [3]; [11]): ≤ 10 h; time at which PpIX fluorescence in the skin was built up after injection (normal skin of nude mice [3]; [11]): 15 min; time of peak PpIX fluorescence in the skin after injection (normal skin of nude mice [3]; [11]): around 4 hours; slowing of tumor regrowth compared with ALA [5]: more effective than ALA in slowing tumor regrowth; PpIX fluorescence in the surrounding normal skin ([6]; 20% w/w cream, 24 hours): no PpIX fluorescence was seen in the surrounding normal skin; distribution of porphyrin fluorescence in the bottom layer of BCC [6, 12]: homogenous distribution; fluorescence intensity ratio between BCC and normal skin [6, 12]: about 2; porphyrin fluorescence/production in BCC, ALA methyl ester versus free ALA and 20% DMSO [6, 12]: higher than that induced by free ALA and 20% DMSO; PpIX fluorescence ratios between BCC lesions and surrounding normal skin (selectivity) compared with free ALA ([7]; 20% for 4 hours, topical): more selectively induce PpIX in BCC lesions than free ALA; PpIX build-up, amount and localization in BCC lesions compared to free ALA ([7]; 20% topical, various time intervals, human patients): built up faster, produced more and localized more selectively in the BCC lesions; in vivo fluorescence intensity in tumors compared to ALA [8]: at least doubled fluorescence intensity; increase of in vivo fluorescence in corresponding normal tissues compared to ALA [8]: about 50%
3 | CCOC(=O)CCC(=O)CN.Cl [ALA ethylester, ethyl 5-aminolevulinate hydrochloride] | 0.5 h | about 6 hours | fluorescence in the epidermis (Ep), epithelial hair follicles and sebaceous gland (arrows), but not in the dermis (De) |  |  |  |  |  |  |  | 
4 | NCC(=O)CCC(=O)O [ALA, 5-aminolevulinic acid] | 0.5 h | about 6 hours | fluorescence in the epidermis (Ep), epithelial hair follicles and sebaceous gland (arrows), but not in the dermis (De) | marked erythema | central necrotic area corresponding to the tumor | homogeneous distribution of PpIX fluorescence | homogenous distribution | about 1 | less than that in the case of ALA methyl ester |  | PpIX fluorescence in other areas of the skin and internal organs (ear, dermis, muscle, brain, liver) (normal skin of nude mice [3]; 14 hours after topical application, listed as free ALA): a strong fluorescence was also seen in the ear as well as in the other areas of the skin; also recorded: a strong fluorescence of free ALA-induced porphyrins was found in regions of the skin outside the area where the cream was topically applied; complete response rate of nodular BCCs [9]: low complete response rate; superficial BCCs showing complete regression ([9]; past five years): more than 90%; time after topical application at which PpIX fluorescence was built up (normal skin of nude mice [10]; 20% cream, normal skin of nude mice): 1.5 h
5 | C[S+](C)[O-] [DMSO, Dimethyl sulphoxide] |  |  |  |  |  |  |  |  |  | did not show any fluorescence | 
6 | CC(=O)N(O)CCCCCNC(=O)CCC(=O)N(O)CCCCCNC(=O)CCC(=O)N(O)CCCCCN [DF, desferrioxamine mesylate] |  |  |  |  |  |  |  |  |  | some fluorescence of PpIX | effect on production of ALA methylester-induced PpIX (normal skin of nude mice [10]; topical, with 20% ALA methylester cream, normal mouse skin): significantly enhanced; also recorded: significant effect in enhancing the production
